Measurements taken from patent US20250144067A1, “PERSONALIZED STARVATION THERAPY FOR CANCER” (Faeth Therapeutics, Inc., priority 2021, published 2025).
Counter-ions that a name gives are not always drawn. Like-named read-outs stand apart in the source and are kept apart here.

Tests used:
[1] = test system: NCI-H292 lung cancer cells; test: FDA drug screening, complete media vs cholesterol-free media with simvastatin (TABLE 2); format: cell-based, human
[2] = test system: NCI-H292 lung cancer cells; test: FDA drug screening, complete media vs cholesterol-free media without statin (TABLE 1); format: cell-based, human
[3] = NCI-H292 cells, cholesterol-free media with simvastatin 0.04 μM, FDA drug library screen (TABLE 2)
[4] = NCI-H292 cells, complete media, FDA drug library screen (TABLE 2)
[5] = complete media minus cholesterol-free media + simvastatin (0.04 μM), >0 enhanced anti-cancer activity, about 0 neutral, <0 antagonist
[6] = Complete minus Cholesterol-free, greater than 0 enhanced anti-cancer activity, about 0 neutral, below 0 antagonist
[7] = NCI-H292 cells, FDA drug library screen, cholesterol-free media without statin
[8] = NCI-H292 cells, FDA drug library screen, complete media
[9] = Complete minus Cholesterol-free, >0 enhanced anti-cancer activity, about 0 neutral, <0 antagonist
[10] = NCI-H292 cells, cholesterol-free media without statin
[11] = complete media minus cholesterol-free media + simvastatin (0.04 μM), […]
[12] = Complete minus Cholesterol-free, […]
[13] = NCI-H292 cells, cholesterol-free media without statin, FDA drug library screen
[14] = NCI-H292 cells, complete media, FDA drug library screen
[15] = NCI-H292 cells, FDA drug library screen, cholesterol-free media with simvastatin 0.04 μM
[16] = NCI-H292 cells, drug in cholesterol-free media with simvastatin 0.04 μM
[17] = NCI-H292 cells, drug in complete media
[18] = complete media vs cholesterol-free media + simvastatin (0.04 μM), >0 enhanced anti-cancer activity, about 0 neutral, <0 antagonist
[19] = complete vs cholesterol-free media, >0 enhanced anti-cancer activity, about 0 neutral, <0 antagonist
[20] = NCI-H292 cells, FDA library drug in cholesterol-free media with simvastatin 0.04 μM
[21] = NCI-H292 cells, FDA library drug in complete media
[22] = Complete minus Cholesterol-free, greater than 0 enhanced anti-cancer activity, about 0 neutral, below 0 antagonists
[23] = NCI-H292 cells in cholesterol-free media without statin
[24] = NCI-H292 cells in complete media
[25] = NCI-H292 cells, cholesterol-free media with simvastatin 0.04 μM, cell growth value in FDA drug screen
[26] = NCI-H292 cells, complete media, cell growth value in FDA drug screen
[27] = complete media minus cholesterol-free media + simvastatin, >0 enhanced anti-cancer activity, about 0 neutral, <0 antagonist
[28] = complete vs cholesterol-free media, greater than 0 enhanced anti-cancer activity, about 0 neutral, below 0 antagonists

Compound: O=c1[nH]c(=O)n([C@H]2C[C@H](O)[C@@H](CO)O2)cc1C(F)(F)F [Trifluridine]
- Cholesterol-free media + simvastatin (0.04 μM) [1, 3]: 0.1119
- Complete Media [1, 4]: 0.1066
- Difference [1, 5]: −0.01
- Difference [2, 6]: −0.14
- Cholesterol-free [2, 7]: 0.2875
- Complete [2, 8]: 0.145

Compound: CC(C)C(=O)Nc1ccc([N+](=O)[O-])c(C(F)(F)F)c1 [Flutamide]
- Cholesterol-free media + simvastatin (0.04 μM) [1, 3]: 0.8786
- Complete Media [1, 4]: 0.855
- Difference [1, 5]: −0.02
- Difference [2, 9]: −0.27
- Cholesterol-free [2, 10]: 1.049
- Complete ([2]; NCI-H292 cells, complete media): 0.7826

Compound: CC(C)[C@]12O[C@H]1[C@@H]1O[C@@]13[C@@]1(C)CCC4=C(COC4=O)[C@@H]1C[C@@H]1O[C@@]13C2=O [Triptonide]
- Cholesterol-free media + simvastatin (0.04 μM) [1, 3]: 0.02446
- Complete Media [1, 4]: 0.02522
- Difference [1, 11]: 0.00
- Difference [2, 12]: −0.01
- Cholesterol-free [2, 13]: 0.01808
- Complete [2, 14]: 0.005807

Compound: CC1(C)CCC(C)(C)c2cc(NC(=O)c3ccc(C(=O)O)cc3)ccc21 [Tamibarotene]
- Cholesterol-free media + simvastatin (0.04 μM) [1, 15]: 0.556
- Complete Media [1, 8]: 0.7365
- Difference ([1]; complete media minus cholesterol-free media + simvastatin, […]): 0.18
- Difference [2, 12]: −0.24
- Cholesterol-free [2, 10]: 0.7767
- Complete ([2]; NCI-H292 cells, complete media): 0.5392

Compound: Pergolide (mesylate)
- Cholesterol-free media + simvastatin (0.04 μM) [1]: 0.9579
- Complete Media [1]: 1.079
- Difference [1]: 0.12
- Cholesterol-free [2]: 1.027
- Complete [2]: 0.8214
- Difference [2]: −0.21

Compound: CC(C)(C)C(=O)OCOP(=O)(COCCn1cnc2c(N)ncnc21)OCOC(=O)C(C)(C)C [Adefovir dipivoxil]
- Cholesterol-free media + simvastatin (0.04 μM) [1, 3]: 0.2485
- Complete Media [1, 4]: 0.1986
- Difference [1, 5]: −0.05
- Difference [2, 9]: −0.04
- Cholesterol-free [2, 13]: 0.1811
- Complete [2, 14]: 0.1375

Compound: COc1cc2nccc(Oc3ccc(NC(=O)NC4CC4)c(Cl)c3)c2cc1C(N)=O [Lenvatinib]
- Cholesterol-free media + simvastatin (0.04 μM) [1, 16]: 1.178
- Complete Media [1, 17]: 1.01
- Difference [1, 18]: −0.17
- Difference [2, 6]: −0.11
- Cholesterol-free [2, 7]: 1.182
- Complete [2, 8]: 1.077

Compound: COc1ccc(C(=O)N2CCN(c3ccc4c(c3)CCC(=O)N4)CC2)cc1OC [Vesnarinone]
- Cholesterol-free media + simvastatin (0.04 μM) [1, 3]: 0.9506
- Complete Media [1, 4]: 0.9031
- Difference [1, 5]: −0.05
- Cholesterol-free [2, 13]: 0.9756
- Complete [2, 14]: 1.197
- Difference [2, 19]: 0.22

Compound: Chloramphenicol succinate (sodium)
- Cholesterol-free media + simvastatin (0.04 μM) [1]: 0.9173
- Complete Media [1]: 0.8083
- Difference [1]: −0.11
- Cholesterol-free [2]: 0.9119
- Complete [2]: 0.8447
- Difference [2]: −0.07

Compound: COc1ccc2c(c1)c(CC(=O)OCC(=O)O)c(C)n2C(=O)c1ccc(Cl)cc1 [Acemetacin]
- Cholesterol-free media + simvastatin (0.04 μM) [1, 20]: 2.236
- Complete Media [1, 21]: 1.509
- Difference [1, 18]: −0.73
- Cholesterol-free [2, 13]: 1.099
- Complete [2, 14]: 1.479
- Difference [2, 19]: 0.38

Compound: CNC[C@H](O)c1cccc(O)c1 [Phenylephrine (hydrochloride)]
- Cholesterol-free media + simvastatin (0.04 μM) [1, 15]: 2.302
- Difference [1, 5]: −1.21
- Difference [2, 22]: −0.61
- Cholesterol-free [2, 23]: 1.371
- Complete [2, 24]: 0.7558

Compound: Bedaquiline (fumarate)
- Cholesterol-free media + simvastatin (0.04 μM) [1, 25]: 0.9095
- Complete Media [1, 26]: 0.9785
- Difference [1, 27]: 0.07
- Cholesterol-free [2, 10]: 1.587
- Complete ([2]; NCI-H292 cells, complete media): 1.119
- Difference [2, 28]: −0.47

Compound: Cc1ccc([C@@H]2O[C@H](CO)[C@@H](O)[C@H](O)[C@H]2O)cc1Cc1ccc(-c2ccc(F)cc2)s1 [Canagliflozin]
- Cholesterol-free media + simvastatin (0.04 μM) [1, 3]: 1.109
- Complete Media [1, 4]: 1.104
- Difference [1, 11]: −0.01
- Cholesterol-free [2, 10]: 1.159
- Complete ([2]; NCI-H292 cells, complete media): 0.8206
- Difference ([2]; complete vs cholesterol-free media, […]): −0.34

Compound: Nc1c(Br)cc(Br)cc1CN[C@H]1CC[C@H](O)CC1 [Ambroxol]
- Cholesterol-free media + simvastatin (0.04 μM) [1, 15]: 1.121
- Complete Media [1, 8]: 0.9656
- Difference [1, 18]: −0.16
- Difference [2, 9]: −0.22
- Cholesterol-free [2, 10]: 1.134
- Complete ([2]; NCI-H292 cells, complete media): 0.9121

Compound: CCCc1nc(C(C)(C)O)c(C(=O)OCc2oc(=O)oc2C)n1Cc1ccc(-c2ccccc2-c2nnn[nH]2)cc1 [Olmesartan medoxomil]
- Cholesterol-free media + simvastatin (0.04 μM) [1, 20]: 2.007
- Complete Media [1, 21]: 1.701
- Difference [1, 18]: −0.31
- Cholesterol-free [2, 13]: 0.613
- Complete [2, 14]: 1.033
- Difference [2, 19]: 0.42

Compound: COc1c(N2CCNC(C)C2)c(F)cc2c(=O)c(C(=O)O)cn(C3CC3)c12 (stereo not shown) [Gatifloxacin (hydrochloride)]
- Cholesterol-free media + simvastatin (0.04 μM) [1, 15]: 0.9302
- Complete Media [1, 8]: 0.7736
- Difference [1, 18]: −0.16
- Difference [2, 6]: −0.09
- Cholesterol-free [2, 7]: 1.038
- Complete [2, 8]: 0.9512

Compound: (S)-Timolol (Maleate)
- Cholesterol-free media + simvastatin (0.04 μM) [1, 25]: 1.237
- Complete Media [1, 26]: 1.285
- Difference [1, 27]: 0.05
- Difference [2, 9]: −0.04
- Cholesterol-free [2, 13]: 1.235
- Complete [2, 14]: 1.191

Compound: Cc1cccc(C)c1OCC(=O)N[C@@H](Cc1ccccc1)[C@@H](O)C[C@H](Cc1ccccc1)NC(=O)[C@H](C(C)C)N1CCCNC1=O [Lopinavir]
- Cholesterol-free media + simvastatin (0.04 μM) [1, 15]: 1.549
- Complete Media [1, 8]: 1.393
- Difference [1, 18]: −0.16
- Cholesterol-free [2, 10]: 1.281
- Complete ([2]; NCI-H292 cells, complete media): 0.8723
- Difference [2, 28]: −0.41

Compound: CC(C)(C)NC(=O)[C@H]1CC[C@H]2[C@@H]3CC=C4C=C(C(=O)O)CC[C@]4(C)[C@H]3CC[C@]12C [Epristeride]
- Cholesterol-free media + simvastatin (0.04 μM) [1, 15]: 0.7018
- Complete Media [1, 8]: 0.8964
- Difference [1, 27]: 0.19
- Cholesterol-free [2, 13]: 0.5663
- Complete [2, 14]: 1.029
- Difference [2, 19]: 0.46

Compound: CCOC(=O)COc1ccc2c(=O)cc(-c3ccccc3)oc2c1 [Efloxate]
- Cholesterol-free media + simvastatin (0.04 μM) [1, 15]: 1.124
- Complete Media [1, 8]: 0.9754
- Difference [1, 18]: −0.15
- Cholesterol-free [2, 10]: 1.349
- Complete ([2]; NCI-H292 cells, complete media): 0.929
- Difference [2, 28]: −0.42

Compound: CCCCCCCCCCCC(=O)OCN1C(=O)CCc2ccc(OCCCCN3CCN(c4cccc(Cl)c4Cl)CC3)cc21 [Aripiprazole Lauroxil]
- Cholesterol-free media + simvastatin (0.04 μM) [1, 3]: 0.9724
- Complete Media [1, 4]: 0.9697
- Difference [1, 11]: 0.00
- Difference [2, 12]: −0.06
- Cholesterol-free [2, 13]: 0.9297
- Complete [2, 14]: 0.8705

Compound: CNC[C@H](O)[C@@H](O)[C@H](O)[C@H](O)CO.O=C(O)c1ccc2nc(-c3cc(Cl)cc(Cl)c3)oc2c1 [Tafamidis meglumine]
- Cholesterol-free media + simvastatin (0.04 μM) [1, 15]: 0.9551
- Difference [1, 27]: 0.20
- Difference [2, 9]: −0.03
- Cholesterol-free [2, 13]: 0.8398
- Complete [2, 14]: 0.8088

Compound: C[C@H]1CN(C[C@H](Cc2ccccc2)C(=O)NCC(=O)O)CC[C@@]1(C)c1cccc(O)c1 [Alvimopan (dihydrate)]
- Cholesterol-free media + simvastatin (0.04 μM) [1, 20]: 1.255
- Complete Media [1, 21]: 0.9864
- Difference [1, 18]: −0.27
- Difference [2, 22]: −1.02
- Cholesterol-free [2, 23]: 1.958
- Complete [2, 24]: 0.9383

Compound: Cc1onc(-c2ccccc2)c1C(=O)N[C@@H]1C(=O)N2[C@@H]1SC(C)(C)[C@@H]2C(=O)O [Oxacillin (sodium monohydrate)]
- Cholesterol-free media + simvastatin (0.04 μM) [1, 20]: 1.304
- Complete Media [1, 21]: 1.035
- Difference [1, 18]: −0.27
- Difference [2, 9]: −0.02
- Cholesterol-free [2, 13]: 0.9255
- Complete [2, 14]: 0.9062

Compound: Nc1ccc(/N=N/c2ccccc2)c(N)n1 [Phenazopyridine (hydrochloride)]
- Cholesterol-free media + simvastatin (0.04 μM) [1, 15]: 1.284
- Complete Media [1, 8]: 1.801
- Difference [1, 27]: 0.52
- Difference [2, 9]: −0.06
- Cholesterol-free [2, 13]: 1.194
- Complete [2, 14]: 1.131

Compound: CC(C)(O)C(Cl)(Cl)Cl [Chlorobutanol]
- Cholesterol-free media + simvastatin (0.04 μM) [1, 16]: 1.763
- Complete Media [1, 17]: 1.523
- Difference [1, 18]: −0.24
- Difference [2, 9]: 0.02
- Cholesterol-free [2, 13]: 0.5641
- Complete [2, 14]: 0.5799

Compound: CSCC1CN(/N=C/c2ccc([N+](=O)[O-])o2)C(=O)O1 (stereo not shown) [Nifuratel]
- Cholesterol-free media + simvastatin (0.04 μM) [1, 20]: 1.397
- Complete Media [1, 21]: 1.12
- Difference [1, 18]: −0.28
- Difference [2, 9]: −0.23
- Cholesterol-free [2, 10]: 1.253
- Complete ([2]; NCI-H292 cells, complete media): 1.019

Compound: N#CC[C@H](C1CCCC1)n1cc(-c2ncnc3[nH]ccc23)cn1 [Ruxolitinib]
- Cholesterol-free media + simvastatin (0.04 μM) [1, 15]: 0.6455
- Complete Media [1, 8]: 0.5664
- Difference [1, 18]: −0.08
- Difference [2, 9]: −0.01
- Cholesterol-free [2, 13]: 0.6188
- Complete [2, 14]: 0.6101
